Data reported in publication PMC5218480 (PLoS ONE, 2017).

Tested on: MV-4-11 cells
Assay: Gene expression microarray analysis (Affymetrix PrimeView) and GSEA
Assay type: cell-based, human
Design: RFU PODN (11730768_x_at) / Fold change /veh PODN (11730768_x_at) / RFU LINC00158 (11744669_a_at) / Fold change /veh LINC00158 (11744669_a_at) / RFU DUSP10 (11751237_a_at) / Fold change /veh DUSP10 (11751237_a_at) / RFU ID3 (11757404_x_at) / Fold change /veh ID3 (11757404_x_at) / RFU PLEKHG5 (11737974_s_at) / Fold change /veh PLEKHG5 (11737974_s_at) / RFU LRRC4B (11730491_at) / Fold change /veh LRRC4B (11730491_at) / RFU GIMAP4 (11747438_a_at) / Fold change /veh GIMAP4 (11747438_a_at) / RFU KRT8 (11758183_x_at) / Fold change /veh KRT8 (11758183_x_at) / RFU CNN1 (11734310_a_at) / Fold change /veh CNN1 (11734310_a_at) / RFU VPS37D (11726825_at) / Fold change /veh VPS37D (11726825_at) / RFU C10orf10 (11716522_x_at) / Fold change /veh C10orf10 (11716522_x_at) / RFU KIR2DL2 /// KIR2DL4 /// KIR2DL5A /// KIR2DL5B /// KIR2DS1 /// KIR2DS2 /// KIR2DS3 /// KIR2DS4 /// KIR3DL3 /// KIR3DL3 /// KIR3DS1 (11738374_at) / Fold change /veh KIR2DL2 /// KIR2DL4 /// KIR2DL5A /// KIR2DL5B /// KIR2DS1 /// KIR2DS2 /// KIR2DS3 /// KIR2DS4 /// KIR3DL3 /// KIR3DL3 /// KIR3DS1 (11738374_at) / RFU C1QL1 (11718748_at) / Fold change /veh C1QL1 (11718748_at) / RFU TMPRSS4 (11747572_a_at) / Fold change /veh TMPRSS4 (11747572_a_at) / RFU HAMP (11756126_x_at) / Fold change /veh HAMP (11756126_x_at) / RFU RNFT2 (11725882_a_at) / Fold change /veh RNFT2 (11725882_a_at) / RFU NR4A2 (11747474_a_at) / Fold change /veh NR4A2 (11747474_a_at) / RFU ABCC12 (11746883_a_at) / Fold change /veh ABCC12 (11746883_a_at) / RFU TMEM136 (11760407_x_at) / Fold change /veh TMEM136 (11760407_x_at) / RFU CLDN22 /// WWC2 (11732394_at) / Fold change /veh CLDN22 /// WWC2 (11732394_at) / RFU HLA-DPB1 (11760878_x_at) / Fold change /veh HLA-DPB1 (11760878_x_at) / RFU SPINT1 (11716480_a_at) / Fold change /veh SPINT1 (11716480_a_at) / RFU GAP43 (11754022_s_at) / Fold change /veh GAP43 (11754022_s_at) / RFU A4GNT (11735810_at) / Fold change /veh A4GNT (11735810_at) / RFU PRB3 (11715151_x_at) / Fold change /veh PRB3 (11715151_x_at) / RFU TUBB4B (11761932_at) / Fold change /veh TUBB4B (11761932_at) / RFU CAPN14 (11732068_a_at) / Fold change /veh CAPN14 (11732068_a_at) / RFU TMCC2 (11721928_a_at) / Fold change /veh TMCC2 (11721928_a_at) / RFU IRGQ (11745062_a_at) / Fold change /veh IRGQ (11745062_a_at) / RFU FAM174B (11720279_a_at) / Fold change /veh FAM174B (11720279_a_at) / RFU TMPRSS4 (11748680_a_at) / Fold change /veh TMPRSS4 (11748680_a_at) / RFU FAM212B (11763350_a_at) / Fold change /veh FAM212B (11763350_a_at) / RFU PLEKHG5 (11743358_a_at) / Fold change /veh PLEKHG5 (11743358_a_at) / RFU ZSCAN30 (11745921_a_at) / Fold change /veh ZSCAN30 (11745921_a_at) / RFU CMKLR1 (11741424_a_at) / Fold change /veh CMKLR1 (11741424_a_at) / RFU LOC101060620 /// MAPK8IP1 (11723275_at) / Fold change /veh LOC101060620 /// MAPK8IP1 (11723275_at) / RFU SPTSSB (11747773_x_at) / Fold change /veh SPTSSB (11747773_x_at) / RFU PRSS12 (11739890_at) / Fold change /veh PRSS12 (11739890_at) / RFU BIN1 (11741810_x_at) / Fold change /veh BIN1 (11741810_x_at) / RFU WNT11 (11732464_a_at) / Fold change /veh WNT11 (11732464_a_at) / RFU C10orf10 (11716521_a_at) / Fold change /veh C10orf10 (11716521_a_at) / RFU C5orf56 (11738089_at) / Fold change /veh C5orf56 (11738089_at) / RFU CYB561 (11721691_x_at) / Fold change /veh CYB561 (11721691_x_at) / RFU ANKRD19P (11752326_a_at) / Fold change /veh ANKRD19P (11752326_a_at) / RFU OR2T12 /// OR2T33 /// OR2T8 (11738714_s_at) / Fold change /veh OR2T12 /// OR2T33 /// OR2T8 (11738714_s_at) / RFU VCAN (11748164_a_at) / Fold change /veh VCAN (11748164_a_at) / RFU JSRP1 (11732532_at) / Fold change /veh JSRP1 (11732532_at) / RFU KRTAP10-11 (11738290_x_at) / Fold change /veh KRTAP10-11 (11738290_x_at) / RFU MYO3A (11730013_a_at) / Fold change /veh MYO3A (11730013_a_at) / RFU EBF3 (11725865_a_at) / Fold change /veh EBF3 (11725865_a_at) / RFU CAMK2N1 (11719241_x_at) / Fold change /veh CAMK2N1 (11719241_x_at) / RFU C5orf56 (11738088_a_at) / Fold change /veh C5orf56 (11738088_a_at) / RFU OLFML3 (11715873_a_at) / Fold change /veh OLFML3 (11715873_a_at) / RFU LOC100653217 /// NTM (11731650_a_at) / Fold change /veh LOC100653217 /// NTM (11731650_a_at) / RFU MAPK11 (11762145_a_at) / Fold change /veh MAPK11 (11762145_a_at) / RFU FIZ1 (11724087_x_at) / Fold change /veh FIZ1 (11724087_x_at) / RFU OASL (11726364_x_at) / Fold change /veh OASL (11726364_x_at) / RFU SOX15 (11748057_x_at) / Fold change /veh SOX15 (11748057_x_at) / RFU CD79A (11719716_a_at) / Fold change /veh CD79A (11719716_a_at) / RFU HIST1H1D (11736915_at) / Fold change /veh HIST1H1D (11736915_at) / RFU CASKIN2 (11723855_a_at) / Fold change /veh CASKIN2 (11723855_a_at) / RFU LOC730098 (11760151_x_at) / Fold change /veh LOC730098 (11760151_x_at) / RFU OR4N2 (11742367_at) / Fold change /veh OR4N2 (11742367_at) / RFU PRRT2 (11749266_a_at) / Fold change /veh PRRT2 (11749266_a_at) / RFU SNX32 (11753110_a_at) / Fold change /veh SNX32 (11753110_a_at) / RFU CDHR5 (11726645_a_at) / Fold change /veh CDHR5 (11726645_a_at) / RFU RCAN1 (11760418_a_at) / Fold change /veh RCAN1 (11760418_a_at) / RFU FAM167A (11723789_a_at) / Fold change /veh FAM167A (11723789_a_at) / RFU FAM26E (11764081_at) / Fold change /veh FAM26E (11764081_at) / RFU ISYNA1 (11749810_s_at) / Fold change /veh ISYNA1 (11749810_s_at) / RFU ACY1 (11761880_at) / Fold change /veh ACY1 (11761880_at) / RFU 11764098_at / Fold change /veh 11764098_at / RFU SAMD14 (11745864_x_at) / Fold change /veh SAMD14 (11745864_x_at) / RFU NPB (11741838_a_at) / Fold change /veh NPB (11741838_a_at) / RFU TMPRSS6 (11731388_a_at) / Fold change /veh TMPRSS6 (11731388_a_at) / RFU KRTAP10-2 (11738614_at) / Fold change /veh KRTAP10-2 (11738614_at) / RFU ARHGAP8 /// PRR5-ARHGAP8 (11727945_x_at) / Fold change /veh ARHGAP8 /// PRR5-ARHGAP8 (11727945_x_at) / RFU KRTAP5-7 /// NADSYN1 (11734609_at) / Fold change /veh KRTAP5-7 /// NADSYN1 (11734609_at) / RFU RASL12 (11751679_a_at) / Fold change /veh RASL12 (11751679_a_at) / RFU CDKN2B (11736163_a_at) / Fold change /veh CDKN2B (11736163_a_at) / RFU PRF1 (11729649_at) / Fold change /veh PRF1 (11729649_at) / RFU, ZNF638 /// ZNF638-IT1 / Fold change vs veh, ZNF638 /// ZNF638-IT1 / RFU, PANK3 / Fold change vs veh, PANK3 / RFU, SH3YL1 / Fold change vs veh, SH3YL1 / RFU, ZEB2 / Fold change vs veh, ZEB2 / RFU, NRIP1 / Fold change vs veh, NRIP1 / RFU, PTTG1IP / Fold change vs veh, PTTG1IP / RFU, CAPN2 / Fold change vs veh, CAPN2 / RFU, MED14 / Fold change vs veh, MED14 / RFU, SNORA58 / Fold change vs veh, SNORA58 / RFU, C1orf63 / Fold change vs veh, C1orf63 / RFU, LRRFIP1 / Fold change vs veh, LRRFIP1 / RFU, NDUFAF7 / Fold change vs veh, NDUFAF7 / RFU, SLC12A2 / Fold change vs veh, SLC12A2 / RFU, IBTK / Fold change vs veh, IBTK / RFU, ESF1 / Fold change vs veh, ESF1 / Fold change vs veh, TMEM50B / RFU, TAOK1 / Fold change vs veh, TAOK1 / RFU, ACBD3 / Fold change vs veh, ACBD3 / RFU, TMA16 / Fold change vs veh, TMA16 / RFU, RWDD3 / Fold change vs veh, RWDD3 / RFU, BCAT1 / Fold change vs veh, BCAT1 / RFU, EDEM3 / Fold change vs veh, EDEM3 / RFU, TMEM33 / Fold change vs veh, TMEM33 / RFU, WDR75 / Fold change vs veh, WDR75 / RFU, AHCTF1 / Fold change vs veh, AHCTF1 / RFU, TFRC / Fold change vs veh, TFRC / RFU, ZDHHC17 / Fold change vs veh, ZDHHC17 / RFU, NOM1 / Fold change vs veh, NOM1 / RFU, ARL8B / Fold change vs veh, ARL8B / RFU, ZBTB11 / Fold change vs veh, ZBTB11 / RFU, TAMM41 / Fold change vs veh, TAMM41 / RFU, KIAA1704 /// LOC100996395 / Fold change vs veh, KIAA1704 /// LOC100996395 / RFU, ING1 / Fold change vs veh, ING1 / RFU, TRMT61B / Fold change vs veh, TRMT61B / RFU, FUBP3 / Fold change vs veh, FUBP3 / RFU, TP53 / Fold change vs veh, TP53 / RFU, TNKS2 / Fold change vs veh, TNKS2 / RFU, ZFP14 / Fold change vs veh, ZFP14 / RFU, ACTR2 / Fold change vs veh, ACTR2 / RFU, PPP3R1 / Fold change vs veh, PPP3R1 / RFU, PIK3R1 / Fold change vs veh, PIK3R1 / RFU, HNRNPA1 / Fold change vs veh, HNRNPA1 / RFU, RNF170 / Fold change vs veh, RNF170 / RFU, ZNF28 / Fold change vs veh, ZNF28 / RFU, RNGTT / Fold change vs veh, RNGTT / RFU, OGT / Fold change vs veh, OGT / RFU, BRD1 / Fold change vs veh, BRD1 / RFU, MARS / Fold change vs veh, MARS / RFU, ZNF655 / Fold change vs veh, ZNF655 / RFU, FAHD1 / Fold change vs veh, FAHD1 / RFU, BDP1 / Fold change vs veh, BDP1 / RFU, LRRCC1 / Fold change vs veh, LRRCC1 / RFU, ARID1A / Fold change vs veh, ARID1A / RFU, ZNF146 / Fold change vs veh, ZNF146 / RFU, ZNF330 / Fold change vs veh, ZNF330 / RFU, GPN3 / Fold change vs veh, GPN3 / RFU, C9orf123 / Fold change vs veh, C9orf123 / RFU, N4BP2L2 / Fold change vs veh, N4BP2L2 / RFU, ARFIP1 / Fold change vs veh, ARFIP1 / RFU, FAM179B / Fold change vs veh, FAM179B / RFU, BCL10 / Fold change vs veh, BCL10 / RFU, UHRF1BP1L / Fold change vs veh, UHRF1BP1L / RFU, BET1 / Fold change vs veh, BET1 / RFU, CNOT2 / Fold change vs veh, CNOT2 / RFU, ZNF268 / Fold change vs veh, ZNF268 / Fold change vs veh, ZNF507 / RFU, DGCR2 / Fold change vs veh, DGCR2 / RFU, WDSUB1 / Fold change vs veh, WDSUB1 / Fold change vs veh, HSP90B1 /// MIR3652 / RFU, ADSS / Fold change vs veh, ADSS / RFU, GK / Fold change vs veh, GK / RFU, ZNF148 / Fold change vs veh, ZNF148 / RFU, TAF9 / Fold change vs veh, TAF9 / RFU, SLC1A5 / Fold change vs veh, SLC1A5 / RFU, SLMO2 / Fold change vs veh, SLMO2 / RFU, ABCC4 / Fold change vs veh, ABCC4 / RFU, LOC101060439 /// RAP1B / Fold change vs veh, LOC101060439 /// RAP1B / RFU, RFX7 / Fold change vs veh, RFX7 / RFU, GTPBP10 / Fold change vs veh, GTPBP10 / RFU, CNEP1R1 / Fold change vs veh, CNEP1R1 / RFU, BIVM-ERCC5 /// ERCC5 / Fold change vs veh, BIVM-ERCC5 /// ERCC5 / RFU, ILF3 / Fold change vs veh, ILF3 / RFU 11762660_at / Fold change /veh 11762660_at / RFU VCAN (11757783_s_at) / Fold change /veh VCAN (11757783_s_at) / RFU DDX43 (11728927_at) / Fold change /veh DDX43 (11728927_at) / RFU KRT8 (11758188_x_at) / Fold change /veh KRT8 (11758188_x_at) / RFU NKD1 (11759106_at) / Fold change /veh NKD1 (11759106_at) / RFU SRD5A1 (11742802_a_at) / Fold change /veh SRD5A1 (11742802_a_at) / RFU TPSAB1 /// TPSB2 (11721975_s_at) / Fold change /veh TPSAB1 /// TPSB2 (11721975_s_at) / RFU GSTM3 (11746129_a_at) / Fold change /veh GSTM3 (11746129_a_at) / RFU IL23R (11737362_x_at) / Fold change /veh IL23R (11737362_x_at) / RFU TMEM51 (11727254_a_at) / Fold change /veh TMEM51 (11727254_a_at) / RFU PIWIL2 (11732686_x_at) / Fold change /veh PIWIL2 (11732686_x_at) / RFU ORM1 (11744905_x_at) / Fold change /veh ORM1 (11744905_x_at) / RFU CCDC152 (11743942_at) / Fold change /veh CCDC152 (11743942_at) / RFU ECM1 (11717891_a_at) / Fold change /veh ECM1 (11717891_a_at) / RFU IL23R (11748794_a_at) / Fold change /veh IL23R (11748794_a_at) / RFU TNFAIP8L3 (11732012_x_at) / Fold change /veh TNFAIP8L3 (11732012_x_at) / RFU MBOAT4 (11741988_at) / Fold change /veh MBOAT4 (11741988_at) / RFU 11764193_at / Fold change /veh 11764193_at / RFU TMEM53 (11763286_at) / Fold change /veh TMEM53 (11763286_at) / RFU MAGEB2 (11727129_at) / Fold change /veh MAGEB2 (11727129_at) / RFU TMEM200A (11744735_a_at) / Fold change /veh TMEM200A (11744735_a_at) / RFU CCDC152 (11751479_a_at) / Fold change /veh CCDC152 (11751479_a_at) / RFU FAM211A (11726209_a_at) / Fold change /veh FAM211A (11726209_a_at) / RFU RGS16 (11746705_a_at) / Fold change /veh RGS16 (11746705_a_at) / RFU VCAN (11755009_s_at) / Fold change /veh VCAN (11755009_s_at) / RFU RHOB (11743442_s_at) / Fold change /veh RHOB (11743442_s_at) / RFU RGS16 (11720943_a_at) / Fold change /veh RGS16 (11720943_a_at) / RFU RGS16 (11720944_at) / Fold change /veh RGS16 (11720944_at) / RFU, VPS4B / Fold change vs veh, VPS4B / RFU, CREB1 / Fold change vs veh, CREB1 / RFU, DNAJC13 / Fold change vs veh, DNAJC13 / RFU, GNAQ / Fold change vs veh, GNAQ / RFU, CDK5R1 / Fold change vs veh, CDK5R1 / RFU, ZRANB3 / Fold change vs veh, ZRANB3 / RFU, CUL4A / Fold change vs veh, CUL4A / RFU, CCNY / Fold change vs veh, CCNY / RFU, UFL1 / Fold change vs veh, UFL1 / RFU, COG3 / Fold change vs veh, COG3 / RFU, DIAPH2 / Fold change vs veh, DIAPH2 / RFU, SKA2 / Fold change vs veh, SKA2 / RFU, AFF3 / Fold change vs veh, AFF3 / RFU, LMF1 / Fold change vs veh, LMF1 / RFU, IPO11 / Fold change vs veh, IPO11 / RFU, DFFB / Fold change vs veh, DFFB / RFU, FOXP1 / Fold change vs veh, FOXP1 / RFU, CARD8 / Fold change vs veh, CARD8 / RFU, STRN3 / Fold change vs veh, STRN3 / RFU, ADK / Fold change vs veh, ADK / RFU, RASSF2 / Fold change vs veh, RASSF2 / RFU, WIPF1 / Fold change vs veh, WIPF1 / RFU, LARP1B / Fold change vs veh, LARP1B / RFU, RASA1 / Fold change vs veh, RASA1 / RFU, RB1 / Fold change vs veh, RB1 / RFU, PPFIA1 / Fold change vs veh, PPFIA1 / RFU, MAT2A / Fold change vs veh, MAT2A / RFU, CCT5 / Fold change vs veh, CCT5 / RFU, WDR92 / Fold change vs veh, WDR92 / RFU, CUX1 / Fold change vs veh, CUX1 / RFU, TTC7A / Fold change vs veh, TTC7A / RFU, TMEM135 / Fold change vs veh, TMEM135 / RFU, DEPTOR / Fold change vs veh, DEPTOR / RFU, CPM / Fold change vs veh, CPM / RFU, DNAJB6 / Fold change vs veh, DNAJB6 / RFU, CACNA2D3 / Fold change vs veh, CACNA2D3 / RFU, DTX4 / Fold change vs veh, DTX4 / RFU, TFCP2 / Fold change vs veh, TFCP2 / RFU, GMCL1 /// GMCL1P1 / Fold change vs veh, GMCL1 /// GMCL1P1 / RFU, AEBP2 / Fold change vs veh, AEBP2 / RFU, SNHG1 /// SNORD22 /// SNORD25 /// SNORD26 /// SNORD27 /// SNORD28 /// SNORD29 /// SNORD31 / Fold change vs veh, SNHG1 /// SNORD22 /// SNORD25 /// SNORD26 /// SNORD27 /// SNORD28 /// SNORD29 /// SNORD31 / Fold change (Aza/veh), C12orf56 (ProbeSet 11735607_a_at) / Fold change (ACY-1035/veh), C12orf56 (ProbeSet 11735607_a_at) / Fold change (Aza/veh), FGFR1OP (ProbeSet 11751329_s_at) / Fold change (ACY-1035/veh), FGFR1OP (ProbeSet 11751329_s_at) / Fold change (Aza/veh), VPS36 (ProbeSet 11739960_a_at) / Fold change (ACY-1035/veh), VPS36 (ProbeSet 11739960_a_at) / RFU SYPL1 (11715823_x_at) / Fold change /veh SYPL1 (11715823_x_at) / RFU IGFBP7 (11715501_s_at) / Fold change /veh IGFBP7 (11715501_s_at) / RFU REEP3 (11722064_at) / Fold change /veh REEP3 (11722064_at) / RFU IGLL1 (11728026_x_at) / Fold change /veh IGLL1 (11728026_x_at): dose or concentration left out as unconfirmed
Conditions: MV-4-11 cells, 48 hours

SMILES: Nc1ncn([C@@H]2O[C@H](CO)[C@@H](O)[C@H]2O)c(=O)n1 [azacitidine]
- Fold change /veh TMEM53 (11763286_at): 1.48
